Patent publication US20250122202A1, “EGFR INHIBITOR, PREPARATION METHOD THEREFOR AND USE THEREOF” (SHANDONG NEW TIME PHARMACEUTICAL CO., LTD., priority 2021, published 2025)
Read-outs that look alike come from different tables or passages of the source.

What was measured:
[1] = target: EGFR-Del19/T790M/C797S kinase (Homo sapiens, UniProt P00533, C797S/T790M, form not given); test: In-vitro enzyme experiment 2 (HTRF kinase assay), EGFR Del19 T790M C797S; type: biochemical; conditions: read-out: enzyme inhibition IC50 (nM) EGFR-Del19/T790M/C797S
Chain of EGFR-Del19/T790M/C797S kinase (P00533 25-1210 T790M/C797S limits assumed, form open): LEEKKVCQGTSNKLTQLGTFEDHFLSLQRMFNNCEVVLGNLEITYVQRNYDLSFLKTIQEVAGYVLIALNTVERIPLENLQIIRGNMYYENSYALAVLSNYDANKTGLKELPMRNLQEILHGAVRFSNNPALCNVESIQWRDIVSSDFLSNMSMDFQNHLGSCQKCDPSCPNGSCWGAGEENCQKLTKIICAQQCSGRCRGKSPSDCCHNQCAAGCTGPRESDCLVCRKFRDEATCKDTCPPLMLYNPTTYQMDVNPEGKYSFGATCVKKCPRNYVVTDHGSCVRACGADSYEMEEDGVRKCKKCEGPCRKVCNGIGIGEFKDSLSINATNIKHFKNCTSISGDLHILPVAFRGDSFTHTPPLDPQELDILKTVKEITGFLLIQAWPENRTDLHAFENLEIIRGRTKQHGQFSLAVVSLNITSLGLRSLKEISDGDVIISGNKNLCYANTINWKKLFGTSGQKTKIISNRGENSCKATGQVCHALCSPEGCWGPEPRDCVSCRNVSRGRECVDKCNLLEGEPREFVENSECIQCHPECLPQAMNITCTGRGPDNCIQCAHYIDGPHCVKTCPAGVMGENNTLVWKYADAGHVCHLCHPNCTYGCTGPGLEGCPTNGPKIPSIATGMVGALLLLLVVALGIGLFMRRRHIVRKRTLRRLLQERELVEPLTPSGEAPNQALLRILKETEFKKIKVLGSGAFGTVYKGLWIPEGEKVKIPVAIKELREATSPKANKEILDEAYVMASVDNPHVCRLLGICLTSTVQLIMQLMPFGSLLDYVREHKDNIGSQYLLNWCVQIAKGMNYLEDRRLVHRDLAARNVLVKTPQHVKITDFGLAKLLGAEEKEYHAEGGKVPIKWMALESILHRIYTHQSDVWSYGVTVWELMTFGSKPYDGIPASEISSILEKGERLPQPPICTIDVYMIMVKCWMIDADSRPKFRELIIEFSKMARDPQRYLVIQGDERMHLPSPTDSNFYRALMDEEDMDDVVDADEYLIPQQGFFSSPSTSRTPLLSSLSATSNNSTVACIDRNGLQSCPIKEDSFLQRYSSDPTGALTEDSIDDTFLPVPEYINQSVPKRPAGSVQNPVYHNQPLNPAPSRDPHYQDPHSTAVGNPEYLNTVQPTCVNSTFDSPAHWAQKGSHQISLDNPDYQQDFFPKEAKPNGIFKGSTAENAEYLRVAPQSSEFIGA
Experimental: The specific experiment was as follows: • 1. […] Test method of activity of compound • a) a compound diluent was transferred to each well of an assay plate (784075, Greiner) using Echo 550; • b) the assay plate was sealed and centrifuged at 1,000 g for 1 min; • c) 2×EGFR (D770-N771 ins NPG T790M) was prepared in a 1× kinase buffer; • d) 5 μl of the 2×EGFR (D770-N771 ins NPG T790M) was added to a 384-well assay plate (784075, Greiner); • e) the assay plate was centrifuged at 1,000 g for 30 s and incubated at room temperature for 10 min; • f) 2× TK-substrate-biotin (2 μM) and ATP were added to the 1× kinase buffer and mixed; • g) the reaction was started after adding 5 μl of the TK-substrate-biotin (2 μM) and ATP mixture; • h) the assay plate was centrifuged at 1,000 g for 30 s; and the assay plate was sealed and incubated at room temperature for 40 min; • i) 4× Sa-XL 665 was prepared in an HTRF detection buffer; • j) 5 μl of the Sa-XL 665 and 5 μl of a TK-antibody-cryptate were added to each well of the assay plate; • k) the assay plate was centrifuged at 1,000 g for 30 s and incubated at room temperature for 1 h; and • l) fluorescence signals at 615 nm (cryptate) and 665 nm (XL665) were read on an Envision 2104 reader. • 3. Data analysis • 3.1 Calculation of ratio (665/615 nm) of each well • 3.2 Calculation of inhibition rate
[formula] • 3.3 Calculation of IC50 value of compound and drawing dose-effect curve of compound • IC50 values were calculated using GraphPad 6.0 by applying a non-linear regression curve (dose-effect relationship-variable slope) of the logarithm of the compound concentration versus the inhibition rate.
The preparation of the kinase buffer, the test method of the activity of the compound, and the data analysis referred to the relevant definitions in example 117, wherein step c) of the test method of the activity of the compound was replaced by preparing 2×EGFR Del19 T790M C797S in the 1× kinase buffer.

A549 EGFR-WT = test: Cell proliferation inhibition experiment (CCK-8), A549; conditions: Homo sapiens, A549, 72 h
[2] = system: KC-1474:PC-9 EGFR-Del19/T790M/C797S; test: Cell proliferation inhibition experiment (CCK-8), KC-1474; type: cell-based; conditions: Homo sapiens, 72 h
Text: (§1) Inhibition rate %=[(A0−AS)/(A0−AC)]×100%.

[3] = system: KC-0178:NCI-1975 EGFR-L858R/T790M/C797S; test: Cell proliferation inhibition experiment (CCK-8), KC-0178; type: cell-based; conditions: Homo sapiens, 72 h
Text: as §1

H1975 EGFR-L858R/T790M = test: Cell proliferation inhibition experiment (CCK-8), H1975; type: cell-based; conditions: Homo sapiens, NCI-H1975, 72 h
Text: as §1

PC-9 EGFR-Del19 = test: Cell proliferation inhibition experiment (CCK-8), PC-9; type: cell-based; conditions: Homo sapiens, 72 h
Text: as §1

[4] = read-out: cell proliferation inhibition IC50 (μM) A549
[5] = read-out: cell proliferation inhibition IC50 (μM) A549, 72 h, CCK-8
[6] = read-out: cell proliferation inhibition IC50 (μM) A549, 72 h, CCK-8, Table 5 numeric

Compound	IC50 [1] [nM]	IC50 [2] [µM]	IC50 [3] [µM]	also measured
CN1CCN(c2ccc(Nc3nc(NCC4CCOCC4)c4c(C(=O)c5ccc(F)cc5)c[nH]c4n3)cc2)CC1 [Example 59]	100 to 600			
COc1cc(N2CCC(N3CCN(C)CC3)CC2)ccc1Nc1ncc(Cl)c(Nc2ccccc2P(C)(C)=O)n1 [Brigatinib, reference compound]				IC50 (A549 EGFR-WT; [4]): 6.13 µM
CN1CCN(c2ccc(Nc3nc(NC4(CO)CCCC4)c4c(C(=O)c5ccc(F)cc5)c[nH]c4n3)cc2)CC1 [Example 11]	100 to 600			
CN1CCN(c2ccc(Nc3nc(N[C@@H]4C=C[C@H](CO)C4)c4c(C(=O)c5ccc(F)cc5)c[nH]c4n3)cc2)CC1 [Example 19]	10 to 100	0.1 to 1	1 to 2	IC50 (A549 EGFR-WT; [5]): 0.1 to 1 µM; IC50 (H1975 EGFR-L858R/T790M): 0.1 to 1 µM; IC50 (PC-9 EGFR-Del19): < 0.1 µM
CN1CCN(c2ccc(Nc3nc(N[C@H]4CCOC4)c4c(C(=O)c5ccc(F)cc5)c[nH]c4n3)cc2)CC1 [Example 67]	100 to 600			
CN1CCN(c2ccc(Nc3nc(NC4CCCCC4)c4c(C(=O)c5ccc(F)cc5)c[nH]c4n3)cc2)CC1 [Example 41]	100 to 600			
O=C(c1ccc(F)cc1Cl)c1c[nH]c2nc(Nc3ccc(N4CCOCC4)cc3)nc(N[C@H]3CC[C@H](CO)CC3)c12 [Example 105]				IC50 (A549 EGFR-WT; [6]): 0.29 µM
CN1CCN(c2ccc(Nc3nc(NC4(CO)CC4)c4c(C(=O)c5ccc(F)cc5)c[nH]c4n3)cc2)CC1 [Example 10]	10 to 100			
C=CC(=O)Nc1cccc(Oc2nc(Nc3ccc(N4CCN(C)CC4)c(F)c3)nc3[nH]ccc23)c1 [Avitinib, reference compound]		0.1 to 1	1 to 2	IC50 (A549 EGFR-WT; [6]): 1.06 µM
CN1CCN(c2ccc(Nc3nc(N[C@H]4CC[C@H](O)CC4)c4c(C(=O)c5ccc(F)cc5)c[nH]c4n3)cc2)CC1 [Example 56]	10 to 100	< 0.1	1 to 2	IC50 (A549 EGFR-WT; [5]): 0.1 to 1 µM; IC50 (H1975 EGFR-L858R/T790M): 0.1 to 1 µM; IC50 (PC-9 EGFR-Del19): < 0.1 µM
O=C(c1cc(F)cc(F)c1)c1c[nH]c2nc(Nc3ccc(N4CCOCC4)cc3)nc(N[C@H]3CC[C@H](CO)CC3)c12 [Example 101]				IC50 (A549 EGFR-WT; [6]): 0.46 µM
Cn1cc(Nc2nc(N[C@@H]3CCCN(S(=O)(=O)C4CC4)C3)c3c(C(=O)c4ccc(F)cc4)c[nH]c3n2)cn1 [Example 4]				IC50 (A549 EGFR-WT; [6]): 6.53 µM
CN1CCN(c2ccc(Nc3nc(N[C@@H]4CCCN(S(C)(=O)=O)C4)c4c(C(=O)c5ccc(F)cc5)c[nH]c4n3)cc2)CC1 [Example 50]	100 to 600			
C=CC(=O)Nc1cc(Nc2nccc(-c3cn(C)c4ccccc34)n2)c(OC)cc1N(C)CCN(C)C [Osimertinib, reference compound]		1 to 2	1 to 2	IC50 (A549 EGFR-WT; [4]): 3.01 µM
CN1CCN(c2ccc(Nc3nc(N[C@H]4CC[C@@H](O)CC4)c4c(C(=O)c5ccc(F)cc5)c[nH]c4n3)cc2)CC1 [Example 55]	10 to 100	< 0.1	0.1 to 1	IC50 (A549 EGFR-WT; [5]): 0.1 to 1 µM; IC50 (H1975 EGFR-L858R/T790M): 0.1 to 1 µM; IC50 (PC-9 EGFR-Del19): < 0.1 µM
CN1CCN(c2ccc(Nc3nc(N[C@@H]4CCCN(S(=O)(=O)C5CC5)C4)c4c(C(=O)c5ccc(F)cc5)c[nH]c4n3)cc2)CC1 [Example 3]				IC50 (A549 EGFR-WT; [4]): 2.67 µM
CC(C)N1CCC(Nc2nc(Nc3ccc(N4CCOCC4)cc3)nc3[nH]cc(C(=O)c4ccc(F)cc4)c23)CC1 [Example 99]				IC50 (A549 EGFR-WT; [6]): 0.76 µM
CN1CCN(c2ccc(Nc3nc(N[C@@H]4CCN(S(C)(=O)=O)C4)c4c(C(=O)c5ccc(F)cc5)c[nH]c4n3)cc2)CC1 [Example 49]	100 to 600			
CN1CCN(c2ccc(Nc3nc(N[C@H]4CCCN(S(=O)(=O)C5CC5)C4)c4c(C(=O)c5ccc(F)cc5)c[nH]c4n3)cc2)CC1 [Example 21]				IC50 (A549 EGFR-WT; [6]): 0.61 µM
CN1CCN(c2ccc(Nc3nc(N[C@H]4C=C[C@@H](CO)C4)c4c(C(=O)c5ccc(F)cc5)c[nH]c4n3)cc2)CC1 [Example 20]	10 to 100	0.1 to 1	1 to 2	IC50 (A549 EGFR-WT; [5]): 0.1 to 1 µM; IC50 (H1975 EGFR-L858R/T790M): 0.1 to 1 µM; IC50 (PC-9 EGFR-Del19): < 0.1 µM
CN1CCN(c2ccc(Nc3nc(N[C@H]4CCCOC4)c4c(C(=O)c5ccc(F)cc5)c[nH]c4n3)cc2)CC1 [Example 57]	100 to 600			
CN1CCN(c2ccc(Nc3nc(N[C@@H]4CCCOC4)c4c(C(=O)c5ccc(F)cc5)c[nH]c4n3)cc2)CC1 [Example 58]	100 to 600			
COc1cc(N2CCOCC2)ccc1Nc1nc(N[C@H]2CC[C@H](CO)CC2)c2c(C(=O)c3ccc(F)cc3)c[nH]c2n1 [Example 81]				IC50 (A549 EGFR-WT; [6]): 0.92 µM
CN1CCN(c2ccc(Nc3nc(NC4CCN(S(=O)(=O)C5CC5)CC4)c4c(C(=O)c5ccc(F)cc5)c[nH]c4n3)cc2)CC1 [Example 63]	100 to 600			

The next lines start with results.

IC50 [1] [nM]	IC50 [2] [µM]	Compound	IC50 [3] [µM]	also measured
10 to 100	0.1 to 1	CN1CCN(c2ccc(Nc3nc(N[C@@H]4CC[C@@H](CO)OC4)c4c(C(=O)c5ccc(F)cc5)c[nH]c4n3)cc2)CC1 [Example 95]	< 0.1	
100 to 600		CO[C@H]1CC[C@H](Nc2nc(Nc3ccc(N4CCN(C)CC4)cc3)nc3[nH]cc(C(=O)c4ccc(F)cc4)c23)CC1 [Example 73]		
10 to 100	< 0.1	CN1CCN(c2ccc(Nc3nc(N[C@H]4CC[C@@H](CO)CC4)c4c(C(=O)c5ccc(F)cc5)c[nH]c4n3)cc2F)CC1 [Example 103]	1 to 2	IC50 (A549 EGFR-WT; [5]): 0.1 to 1 µM; IC50 (H1975 EGFR-L858R/T790M): 0.1 to 1 µM; IC50 (PC-9 EGFR-Del19): < 0.1 µM
10 to 100	< 0.1	CN1CCN(c2ccc(Nc3nc(N[C@H]4CC[C@H](CO)CC4)c4c(C(=O)c5ccc(F)cc5)c[nH]c4n3)cc2F)CC1 [Example 78]	1 to 2	IC50 (H1975 EGFR-L858R/T790M): 0.1 to 1 µM; IC50 (PC-9 EGFR-Del19): < 0.1 µM
100 to 600		O=C(c1ccc(F)cc1)c1c[nH]c2nc(Nc3ccc(N4CCOCC4)c(F)c3)nc(N[C@H]3CC[C@H](CO)CC3)c12 [Example 82]		
10 to 100	0.1 to 1	CN(C)CCOc1ccc(Nc2nc(N[C@H]3CC[C@@H](CO)CC3)c3c(C(=O)c4ccc(F)cc4)c[nH]c3n2)cc1 [Example 107]	1 to 2	IC50 (H1975 EGFR-L858R/T790M): 0.1 to 1 µM; IC50 (PC-9 EGFR-Del19): < 0.1 µM
< 10	< 0.1	CN1CCN(c2ccc(Nc3nc(N[C@H]4CC[C@@H](N)CC4)c4c(C(=O)c5ccc(F)cc5)c[nH]c4n3)cc2)CC1 [Example 86]	1 to 2	IC50 (H1975 EGFR-L858R/T790M): 0.1 to 1 µM; IC50 (PC-9 EGFR-Del19): < 0.1 µM
100 to 600		COc1cc(N2CCN(C)CC2)ccc1Nc1nc(N[C@H]2CC[C@H](CO)CC2)c2c(C(=O)c3ccc(F)cc3)c[nH]c2n1 [Example 80]		
100 to 600		CN1CCN(c2ccc(Nc3nc(OC4CCOCC4)c4c(C(=O)c5ccc(F)cc5)c[nH]c4n3)cc2)CC1 [Example 84]		
100 to 600		O=C(c1ccccc1)c1c[nH]c2nc(Nc3ccc(N4CCOCC4)cc3)nc(N[C@H]3CC[C@H](CO)CC3)c12 [Example 98]		
10 to 100		O=C(c1ccc(F)cc1)c1c[nH]c2nc(Nc3ccc(N4CCOCC4)cc3)nc(N[C@@H]3CC[C@@H](CO)OC3)c12 [Example 94]		
100 to 600		CN1CCC(Nc2nc(Nc3ccc(N4CCN(C)CC4)cc3)nc3[nH]cc(C(=O)c4ccc(F)cc4)c23)CC1 [Example 85]		
100 to 600		COc1nn(C)cc1Nc1nc(N[C@H]2CC[C@H](CO)CC2)c2c(C(=O)c3ccc(F)cc3)c[nH]c2n1 [Example 112]		
10 to 100	0.1 to 1	COc1cc(N2CCN(C)CC2)ccc1Nc1nc(N[C@H]2CC[C@@H](CO)CC2)c2c(C(=O)c3ccc(F)cc3)c[nH]c2n1 [Example 106]	1 to 2	
100 to 600		O=C(c1ccc(F)c(F)c1F)c1c[nH]c2nc(Nc3ccc(N4CCOCC4)cc3)nc(N[C@H]3CC[C@H](CO)CC3)c12 [Example 108]		
	0.1 to 1	Cc1ccc(C(=O)c2c[nH]c3nc(Nc4ccc(N5CCOCC5)cc4)nc(N[C@H]4CC[C@H](CO)CC4)c23)cc1 [Example 97]	0.1 to 1	
100 to 600		CN1CCN(c2ccc(Nc3nc(N[C@@H]4CCOC4)c4c(C(=O)c5ccc(F)cc5)c[nH]c4n3)cc2)CC1 [Example 68]		
